The record followed here is patent US20230382925A1, “MODULATORS OF CYSTIC FIBROSIS TRANSMEMBRANE CONDUCTANCE REGULATOR” (VERTEX PHARMACEUTICALS INCORPORATED, priority 2020, published 2023).

One may read the EC50 as the concentration giving half of the maximal effect.

The target in this experiment is CFTR (Homo sapiens, UniProt P13569). The experiment can be described thus: Membrane Potential Dye, Enteroid Assay B. The class given is cell-based. The method, boiled down:
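Human intestinal enteroid cells exposed to compound 18-24 h at 37 °C, then loaded with methyl oxonol membrane-potential dye plus CaCC blockers. Chloride transport triggered in chloride-free buffer with 10 μM forskolin, 100 μM IBMX, 300 nM Compound III; fluorescence read 15 min, expressed as % of triple-corrector/potentiator combination control.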

The mark [1] stands for this setting: Table 10, read-out: Ent. B EC50.

Like-named read-outs stand apart in the source and are kept apart here. Bounds are passed on as bounds.

Sequence of CFTR (P13569 with tags, fused parts or gaps DEL508-508): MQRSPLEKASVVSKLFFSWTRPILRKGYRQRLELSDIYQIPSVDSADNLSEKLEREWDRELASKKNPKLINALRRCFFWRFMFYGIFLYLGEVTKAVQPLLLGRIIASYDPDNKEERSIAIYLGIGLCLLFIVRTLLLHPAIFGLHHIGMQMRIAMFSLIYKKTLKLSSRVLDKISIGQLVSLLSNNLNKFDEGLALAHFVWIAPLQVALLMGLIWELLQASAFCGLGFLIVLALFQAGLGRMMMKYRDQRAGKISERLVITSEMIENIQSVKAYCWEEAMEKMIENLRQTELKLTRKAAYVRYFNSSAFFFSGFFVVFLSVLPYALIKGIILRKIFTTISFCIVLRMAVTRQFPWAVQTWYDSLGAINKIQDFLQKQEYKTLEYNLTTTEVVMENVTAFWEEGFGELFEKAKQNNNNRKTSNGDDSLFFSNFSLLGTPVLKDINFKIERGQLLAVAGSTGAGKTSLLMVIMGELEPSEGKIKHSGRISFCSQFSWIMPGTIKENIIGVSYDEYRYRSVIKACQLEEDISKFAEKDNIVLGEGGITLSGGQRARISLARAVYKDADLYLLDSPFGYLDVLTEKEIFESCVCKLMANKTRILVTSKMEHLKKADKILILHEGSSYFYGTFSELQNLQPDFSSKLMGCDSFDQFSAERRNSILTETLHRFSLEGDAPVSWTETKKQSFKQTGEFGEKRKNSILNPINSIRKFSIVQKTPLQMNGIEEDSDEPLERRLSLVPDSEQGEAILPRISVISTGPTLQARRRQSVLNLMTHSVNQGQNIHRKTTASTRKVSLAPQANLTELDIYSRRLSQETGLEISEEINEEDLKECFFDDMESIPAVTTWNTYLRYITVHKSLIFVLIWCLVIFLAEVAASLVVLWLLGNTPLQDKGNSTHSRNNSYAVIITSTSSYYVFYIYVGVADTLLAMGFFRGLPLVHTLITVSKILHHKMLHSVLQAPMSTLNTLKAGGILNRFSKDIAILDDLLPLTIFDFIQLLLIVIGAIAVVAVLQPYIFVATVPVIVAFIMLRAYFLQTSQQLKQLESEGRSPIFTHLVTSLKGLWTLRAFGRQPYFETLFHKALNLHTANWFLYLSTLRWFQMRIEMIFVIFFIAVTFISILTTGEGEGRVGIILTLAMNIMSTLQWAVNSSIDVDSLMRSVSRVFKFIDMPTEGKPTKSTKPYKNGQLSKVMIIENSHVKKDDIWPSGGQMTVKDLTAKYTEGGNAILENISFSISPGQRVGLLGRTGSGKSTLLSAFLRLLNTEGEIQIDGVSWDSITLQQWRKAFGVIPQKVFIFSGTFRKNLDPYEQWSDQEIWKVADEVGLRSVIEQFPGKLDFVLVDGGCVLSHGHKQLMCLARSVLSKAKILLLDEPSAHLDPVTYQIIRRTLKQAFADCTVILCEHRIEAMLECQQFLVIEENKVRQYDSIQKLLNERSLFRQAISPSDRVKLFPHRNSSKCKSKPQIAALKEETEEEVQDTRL

`Cc1cccc(C)c1-c1cc2nc(n1)NS(=O)(=O)c1cccc(c1)C(=O)N([C@H]1CCN(C)C1)[C@H](CC(C)C)CO2` (stereo in doubt) [Compound 296]: the “Ent. B Max Activity (%)” value is “+++ (+++ is >60%)”. The EC50 (read-out: Ent. B EC50) was in the range of 3000 to 30000 nM.

Regarding `[H][C@]1(N2C(=O)c3cccc(c3)S(=O)(=O)Nc3nc(cc(-c4c(C)cccc4C)n3)OC[C@H]2CC(C)(C)C)C[C@@]2(C[C@H](NC(=O)OC3CCC3)C2)C1` (stereo in doubt) [Compound 355], the “Ent. B Max Activity (%)” value (Table 10) was “++ (++ is 30-60%)”. Moreover, the EC50 under setting [1] was < 1000 nM.

In the case of `[H][C@]1(N2C(=O)c3cccc(c3)S(=O)(=O)Nc3nc(cc(-c4c(C)cccc4C)n3)OC[C@H]2CC(C)(C)C)C[C@@]2(C[C@H](NC(=O)OC3CC3)C2)C1` (stereo in doubt) [Compound 356], where the note is “Table 10”, the “Ent. B Max Activity (%)” value was “+++ (+++ is >60%)”. The EC50 under setting [1] was < 1000 nM.

Turning to `Cc1cccc(C)c1-c1cc2nc(n1)NS(=O)(=O)c1cccc(c1)C(=O)N([C@H]1C[C@@H](NC34CC(CO)(C3)C4)C1)[C@H](CC(C)C)CO2` (stereo in doubt) [Compound 358], the “Ent. B Max Activity (%)” value (Table 10) is given as “+++ (+++ is >60%)”. For the same compound, under setting [1], the EC50 was < 1000 nM.

Take `Cc1cccc(C)c1-c1cc2nc(n1)NS(=O)(=O)c1cccc(c1)C(=O)N([C@H]1C[C@@H](OC(=O)Nc3ccccc3)C1)[C@H](CC(C)C)CO2` (stereo in doubt) [Compound 360]: for the setting “Table 10”, the “Ent. B Max Activity (%)” value is reported as “+++ (+++ is >60%)”. Further, the EC50 under setting [1] was < 1000 nM.

Turning to `CNC(=O)O[C@H]1C[C@@H](N2C(=O)c3cccc(c3)S(=O)(=O)Nc3nc(cc(-c4c(C)cccc4C)n3)OC[C@H]2CC(C)C)C1` (stereo in doubt) [Compound 361], for the setting “Table 10”, the “Ent. B Max Activity (%)” value is recorded as “++ (++ is 30-60%)”. Besides, the EC50 under setting [1] is < 1000 nM.

Take `Cc1cccc(C)c1-c1cc2nc(n1)NS(=O)(=O)c1cccc(c1)C(=O)N([C@H]1C[C@H](OC(=O)NCc3ccccc3)C1)[C@H](CC(C)C)CO2` (stereo in doubt) [Compound 362]: for the setting “Table 10”, the “Ent. B Max Activity (%)” value is “++ (++ is 30-60%)”. Moreover, the EC50 under setting [1] is < 1000 nM.

With `Cc1cccc(C)c1-c1cc2nc(n1)NS(=O)(=O)c1cccc(c1)C(=O)N([C@H]1C[C@H](OC(=O)NCC3CCCCC3)C1)[C@H](CC(C)C)CO2` (stereo in doubt) [Compound 363], under “Table 10”, the “Ent. B Max Activity (%)” value was “++ (++ is 30-60%)”. Further, the EC50 under setting [1] is < 1000 nM.

Take `COCCNC(=O)O[C@H]1C[C@H](N2C(=O)c3cccc(c3)S(=O)(=O)Nc3nc(cc(-c4c(C)cccc4C)n3)OC[C@H]2CC(C)C)C1` (stereo in doubt) [Compound 364]: the “Ent. B Max Activity (%)” value (Table 10) was “+++ (+++ is >60%)”. Under setting [1], the EC50 is < 1000 nM.

Take `Cc1cccc(C)c1-c1cc2nc(n1)NS(=O)(=O)c1cccc(c1)C(=O)N([C@H]1C[C@@H](N3C[C@@H](O)CC3=O)C1)[C@H](CC(C)C)CO2` (stereo in doubt) [Compound 370]: for the setting “Table 10”, the “Ent. B Max Activity (%)” value was “++ (++ is 30-60%)”. Further, under setting [1], the EC50 is < 1000 nM.

In the case of `Cc1cccc(C)c1-c1cc2nc(n1)NS(=O)(=O)c1cccc(c1)C(=O)N(C1CC(N[C@H]3CC[C@H](O)CC3)C1)[C@H](CC(C)C)CO2` (stereo in doubt) [Compound 372], the “Ent. B Max Activity (%)” value (Table 9) is given as “+++ (+++ is >60%)”. Moreover, the EC50 (Table 9, read-out: Ent. B EC50) is < 1000 nM.

In the case of `COCCCN(C)[C@H]1C[C@@H](N2C(=O)c3cccc(c3)S(=O)(=O)Nc3nc(cc(-c4c(C)cccc4C)n3)OC[C@H]2CC(C)C)C1` (stereo in doubt) [Compound 379], the “Ent. B Max Activity (%)” value (Table 9) was “+++ (+++ is >60%)”. Besides, the EC50 (Table 9, read-out: Ent. B EC50) was < 1000 nM.

As for `Cc1cccc(C)c1-c1cc2nc(n1)NS(=O)(=O)c1cccc(c1)C(=O)N(C1CC3(C1)CC(O)(CC(C)C)C3)[C@H](CC(C)(C)C)CO2` (stereo in doubt) [Compound 404], the “Ent. B Max Activity (%)” value (Table 10) is “+++ (+++ is >60%)”. The EC50 under setting [1] is < 1000 nM.

Consider `Cc1cccc(C)c1-c1cc2nc(n1)NS(=O)(=O)c1cccc(c1)C(=O)N(C1CC3(C1)CC(O)(CC(C)C)C3)[C@H](CC(C)(C)C)CO2` (stereo in doubt) [Compound 405], for which the “Ent. B Max Activity (%)” value (Table 10) is on record as “+++ (+++ is >60%)”. Under setting [1], the EC50 is < 1000 nM.

For `Cc1cccc(C)c1-c1cc2nc(n1)NS(=O)(=O)c1cccc(n1)C(=O)N([C@H]1C[C@@H](C(C)(C)O)C1)[C@H](CC(C)(C)C)CO2` (stereo in doubt) [Compound 411], the “Ent. B Max Activity (%)” value (Table 10) is listed as “+++ (+++ is >60%)”. Also, the EC50 under setting [1] is < 1000 nM.

As for `[H][C@]1(N2C(=O)c3cccc(c3)S(=O)(=O)Nc3nc(cc(-c4c(C)cccc4C)n3)OC[C@H]2CC(C)C)C[C@@]2(C[C@H](C(C)(C)O)C2)C1` (stereo in doubt) [Compound 412], for the setting “Table 10”, the “Ent. B Max Activity (%)” value is on record as “+++ (+++ is >60%)”. In addition, the EC50 under setting [1] is < 1000 nM.

Take `[H][C@]1(N2C(=O)c3cccc(c3)S(=O)(=O)Nc3nc(cc(-c4c(C)cccc4C)n3)OC[C@H]2CC(C)C)C[C@@]2(C[C@H](C(C)(C)O)C2)C1` (stereo in doubt) [Compound 413]: the “Ent. B Max Activity (%)” value (Table 10) is on record as “+++ (+++ is >60%)”. The EC50 under setting [1] is < 1000 nM.

Consider `Cc1cccc(C)c1-c1cc2nc(n1)NS(=O)(=O)c1cccc(c1)C(=O)N(C1CC(NC(=O)C(C)C)C1)[C@H](CC(C)(C)C)CO2` (stereo in doubt) [Compound 445], for which the “Ent. B Max Activity (%)” value (Table 9) is “+++ (+++ is >60%)”. Moreover, the EC50 (Table 9, read-out: Ent. B EC50) is < 1000 nM.

For `CCC(=O)NC1CC(N2C(=O)c3cccc(c3)S(=O)(=O)Nc3nc(cc(-c4c(C)cccc4C)n3)OC[C@H]2CC(C)(C)C)C1` (stereo in doubt) [Compound 446], where the note is “Table 9”, the “Ent. B Max Activity (%)” value is reported as “+++ (+++ is >60%)”. The EC50 (Table 9, read-out: Ent. B EC50) was < 1000 nM.

As to `CCC(=O)NC1CC(N2C(=O)c3cccc(c3)S(=O)(=O)Nc3nc(cc(-c4c(C)cccc4C)n3)OC[C@H]2CC(C)(C)C)C1` (stereo in doubt) [Compound 447], under “Table 9”, the “Ent. B Max Activity (%)” value is “+++ (+++ is >60%)”. Also, where the note is “Table 9, read-out: Ent. B EC50”, the EC50 was < 1000 nM.

With `CC(=O)NC1CC(N2C(=O)c3cccc(c3)S(=O)(=O)Nc3nc(cc(-c4c(C)cccc4C)n3)OC[C@H]2CC(C)(C)C)C1` (stereo in doubt) [Compound 449], where the note is “Table 9”, the “Ent. B Max Activity (%)” value was “+++ (+++ is >60%)”. Further, the 50% effective concentration (EC50) (Table 9, read-out: Ent. B EC50) is < 1000 nM.

For the compound `Cc1cccc(C)c1-c1cc2nc(n1)NS(=O)(=O)c1cccc(c1)C(=O)N(C1CC(NC(=O)OC(C)C)C1)[C@H](CC(C)(C)C)CO2` (stereo in doubt) [Compound 450], the “Ent. B Max Activity (%)” value (Table 9) was “+++ (+++ is >60%)”. In addition, the EC50 (Table 9, read-out: Ent. B EC50) was < 1000 nM.

On to `Cc1cccc(C)c1-c1cc2nc(n1)NS(=O)(=O)c1cccc(c1)C(=O)N(C1CC(NC(=O)OC(C)C)C1)[C@H](CC(C)(C)C)CO2` (stereo in doubt) [Compound 451], for which the “Ent. B Max Activity (%)” value (Table 9) was “+++ (+++ is >60%)”. Besides, the EC50 (Table 9, read-out: Ent. B EC50) was < 1000 nM.

With `COC1CC(N2C(=O)c3cccc(c3)S(=O)(=O)Nc3nc(cc(-c4c(C)cccc4C)n3)OC[C@H]2CC2(C(F)(F)F)CC2)C1` (stereo in doubt) [Compound 465], the “Ent. B Max Activity (%)” value is recorded as “+++ (+++ is >60%)”. For the same compound, the EC50 (read-out: Ent. B EC50) was < 1000 nM.

Regarding `COC1CC(N2C(=O)c3cccc(c3)S(=O)(=O)Nc3nc(cc(-c4c(C)cccc4C)n3)OC[C@H]2CC2(C(F)(F)F)CC2)C1` (stereo in doubt) [Compound 466], the “Ent. B Max Activity (%)” value is on record as “+++ (+++ is >60%)”. Besides, the EC50 (read-out: Ent. B EC50) is < 1000 nM.

Turning to `Cc1cccc(CO)c1-c1cc2nc(n1)NS(=O)(=O)c1cccc(c1)C(=O)N(C1CC3(CC3)C1)[C@H](CC(C)C)CO2` [Compound 2, (11R)-6-[2-(Hydroxymethyl)-6-methyl-phenyl]-11-isobutyl-2,2-dioxo-12-spiro[2.3]hexan-5-yl-9-oxa-2λ^6-thia-3,5,12,19-tetrazatricyclo[12.3.1.14,8]nonadeca-1(18),4(19),5,7,14,16-hexaen-13-one], the “Ent. B Max Activity (%)” value (Table 10) is “++ (++ is 30-60%)”. Further, the EC50 under setting [1] was < 1000 nM.

Turning to `Cc1cccc(C)c1-c1cc2nc(n1)NS(=O)(=O)c1cccc(c1)C(=O)N(C1CC3(CCN(C4COC4)CC3)C1)[C@H](CC(C)C)CO2` [Compound 24, (11R)-6-(2,6-Dimethylphenyl)-11-isobutyl-12-[7-(oxetan-3-yl)-7-azaspiro[3.5]nonan-2-yl]-2,2-dioxo-9-oxa-2λ^6-thia-3,5,12,19-tetrazatricyclo[12.3.1.14,8]nonadeca-1(18),4(19),5,7,14,16-hexaen-13-one], under “Table 9”, the “Ent. B Max Activity (%)” value was “+++ (+++ is >60%)”. The EC50 (Table 9, read-out: Ent. B EC50) was < 1000 nM.

As for `Cc1cccc(C)c1-c1cc2nc(n1)NS(=O)(=O)c1cccc(c1)C(=O)N(C1CC3(CCN(C(=O)CO)CC3)C1)[C@H](CC(C)C)CO2` [Compound 25, (11R)-6-(2,6-Dimethylphenyl)-12-[7-(2-hydroxyacetyl)-7-azaspiro[3.5]nonan-2-yl]-11-isobutyl-2,2-dioxo-9-oxa-2λ^6-thia-3,5,12,19-tetrazatricyclo[12.3.1.14,8]nonadeca-1(18),4(19),5,7,14,16-hexaen-13-one], the “Ent. B Max Activity (%)” value (Table 9) is “+++ (+++ is >60%)”. The EC50 (Table 9, read-out: Ent. B EC50) is < 1000 nM.

For `Cc1cccc(C)c1-c1cc2nc(n1)NS(=O)(=O)c1cccc(c1)C(=O)N(C1CC3(CCN(C(=O)N(C)C)CC3)C1)[C@H](CC(C)C)CO2` [Compound 26, 2-[(11R)-6-(2,6-Dimethylphenyl)-11-isobutyl-2,2,13-trioxo-9-oxa-2λ^6-thia-3,5,12,19-tetrazatricyclo[12.3.1.14,8]nonadeca-1(18),4(19),5,7,14,16-hexaen-12-yl]-N,N-dimethyl-7-azaspiro[3.5]nonane-7-carboxamide], under “Table 9”, the “Ent. B Max Activity (%)” value was “+++ (+++ is >60%)”. For the same compound, the EC50 (Table 9, read-out: Ent. B EC50) is < 1000 nM.
